This is an account of results in US4021449A (Kyowa Hakko Kogyo Co., Ltd., priority 1973, dated 1977).

Values after ≈ are worked out from the molar mass of the structure shown. Where two headings read alike, the source gives them in different places.

The subject of series [1] is Streptococcus faecalis ATCC 10541. As to the kind of experiment: Antibacterial spectrum, minimum inhibitory concentration (Table 1). It counts as cell-based.
For a further series, the system named is tumor. Particulars: known; cited from earlier work.
The subject of series [2] is Klebsiella penumoniae ATCC 10031. The experiment in a line: Antibacterial spectrum, minimum inhibitory concentration (Table 1). Type of series: cell-based. Conditions: ATCC10031, read-out: Minimum Inhibitory Concentration, Klebsiella penumoniae ATCC 10031.
For series [3], the system named is Staphylococcus aureus ATCC 6538P. The description is as above. Type of series: cell-based. Conditions: ATCC6538P, read-out: Minimum Inhibitory Concentration, Staphylococcus aureus ATCC 6538P.
For series [4] the following is noted: known; derivatives of U.S. Pat. No. 3,514,452; cited from earlier work.
Series [5] concerns Gram-nagative and Gram-positive bacteria. Particulars: known; cited from earlier work.
A short description of series [6]: Lipid-solubility: distribution ratio in butanol/water (1:1) (Table 2). It counts as physicochemical. Conditions: in butanol/water (1:1) at 25° C. From the text:
In determining the lipid-solubility, the distribution ratio of the compound in water and butanol (1:1) is used as the standard.

The next series has as its system Sarcoma 180 solid tumor. The experiment in a line: Anti-tumor activity against Sarcoma 180 solid tumor in mice (Table 3). It counts as in vivo. Particulars: male dd-strain mice; one-sixth of LD50 i.p. once daily for 8 days; tumor weight on 10th day after transplantation. On the procedure: Small portions of Sarcoma 180 solid tumor are transplanted subcutaneously into male dd-strain mice of about 20 g body weight. To each of 10 mice transplanted with tumor, a solution containing one-sixth of the LD50 value of the test compound is administered intraperitoneally once daily for 8 days starting on the day following the transplantation.
As a control, an equal volume of saline is injected in the same manner as above. On the 10th day after the transplantation, the mice are sacrificed and the weight of the tumor is measured. The ratio of average tumor weight of test animals to average tumor weight of control animals (T/C) is calculated.

A short description of another series: in vivo. Particulars: mouse, ip. As for the experimental part:
The acute toxicity (determined as LD50) is determined in mice by intraperitoneal injection.

The mark [7] stands for this setting: Enterococcus faecalis, ATCC10541; read-out: Minimum Inhibitory Concentration, Streptococcus faecalis ATCC 10541.

Regarding `COC12C(COC(N)=O)C3=C(C(=O)C(C)=C(N)C3=O)N1CC1NC12` (single isomer, unassigned) [mitomycin C, reference compound], the figures for the MIC in [1] (setting [7]), in [2] and in series [3] were 0.391 µg/mL (≈ 1.17 µM), less than 0.025 µg/mL and 0.049 µg/mL (≈ 0.147 µM), respectively. Moreover, in the series with tumor, the “anti-tumor activity (in words)” value is reported as “remarkably strong anti-tumor activity”. Further, the “toxicity (in words)” value in [4] is listed as “very toxic”. Also, the “antibacterial activity (in words)” value in [5] was “very strong antibacterial activity against Gram-nagative and Gram-positive bacteria”.
For the molecule `COC12C(COC(N)=O)C3=C(C(=O)C(C)=C(N)C3=O)N1CC1C2N1C(C)=O` (stereo not drawn) [1a-acetyl mitomycin C, reference compound], the MIC came out at 6.25 µg/mL (≈ 16.6 µM) in series [1] (setting [7]), 0.782 µg/mL (≈ 2.08 µM) in series [2] and 1.56 µg/mL (≈ 4.15 µM) in [3]. Moreover, in [6], the “Distribution Ratio (butanol/water)” value turned out to be 3.749. The “Sarcoma 180 (T/C), ratio of average tumor weight of test animals to control animals” value (shortened to “Sarcoma 180 (T/C), ratio”) in the series with Sarcoma 180 solid tumor was determined as 0.48. Besides, in series [4], the “toxicity (in words)” value is “much less toxicity than mitomycin C”. The molecule further registered an LD50 in “in vivo” of 23 mg/kg.
On to `CCCC(=O)N1C2CN3C4=C(C(=O)C(N)=C(C)C4=O)C(COC(N)=O)C3(OC)C21` (stereo not drawn) [1a-butyryl mitomycin C, reference compound], for which the MIC in series [1] (setting [7]) stood at 25 µg/mL (≈ 61.8 µM); in series [2], 3.12 µg/mL (≈ 7.73 µM); in [3], 3.12 µg/mL (≈ 7.73 µM). Also, the “Distribution Ratio (butanol/water)” value in [6] was 4.402. For the same molecule, the “Sarcoma 180 (T/C), ratio” value in the series with Sarcoma 180 solid tumor was determined as 0.59. The “toxicity (in words)” value in series [4] is listed as “much less toxicity than mitomycin C”. Besides, the LD50 in the series “in vivo” amounted to 19 mg/kg.
On to `C/C=C/C(=O)N1C2CN3C4=C(C(=O)C(N)=C(C)C4=O)C(COC(N)=O)C3(OC)C21` (stereo not drawn) [1a-crotonoyl mitomycin C, reference compound], for which the MIC in [1] (setting [7]) was 12.5 µg/mL (≈ 31.1 µM); in series [2] it was 0.782 µg/mL (≈ 1.94 µM); in series [3] it was 1.56 µg/mL (≈ 3.88 µM). Also, in the series with Sarcoma 180 solid tumor, the “Sarcoma 180 (T/C), ratio” value is 0.53. The molecule further gave an LD50 in “in vivo” of 35.5 mg/kg.
Take `CCCCCCCCCC(=O)N1C2CN3C4=C(C(=O)C(N)=C(C)C4=O)C(COC(N)=O)C3(OC)C21` (stereo not drawn) [1a-decanoyl mitomycin C, la-decanoyl mitomycin C]: the MIC is greater than 50 µg/mL in series [1] (setting [7]), 12.5 µg/mL (≈ 25.6 µM) in [2] and 0.782 µg/mL (≈ 1.6 µM) in series [3]. Further, the “Distribution Ratio (butanol/water)” value in series [6] amounted to 7.889. This molecule showed a 50% lethal dose (LD50) in “in vivo” of 67.5 mg/kg.
Consider `CCCCCCCCCCCC(=O)N1C2CN3C4=C(C(=O)C(N)=C(C)C4=O)C(COC(N)=O)C3(OC)C21` (stereo not drawn) [1a-lauroyl mitomycin C, la-lauroyl mitomycin C], for which the MIC is greater than 50 µg/mL in series [1] (setting [7]), greater than 50 µg/mL in [2] and 0.391 µg/mL (≈ 0.757 µM) in series [3]. Moreover, the LD50 in “in vivo” was 44.5 mg/kg.
For the molecule `CC/C=C\C/C=C\C/C=C\CCCCCCCC(=O)N1[C@H]2[C@@H]1CN1C3=C(C(=O)C(N)=C(C)C3=O)[C@@H](COC(N)=O)[C@@]21OC` [1a-linolenoyl mitomycin C, la-linolenoyl mitomycin C], the MIC in series [1] (setting [7]) came out at 1.56 µg/mL (≈ 2.63 µM); in series [2], 6.25 µg/mL (≈ 10.5 µM); in series [3], 0.782 µg/mL (≈ 1.31 µM). Further, the LD50 in the series “in vivo” amounted to 95 mg/kg.
For `CCCCC/C=C\C/C=C\CCCCCCCC(=O)N1C2CN3C4=C(C(=O)C(N)=C(C)C4=O)C(COC(N)=O)C3(OC)C21` (stereo not drawn) [1a-linoleoyl mitomycin C, la-linoleoyl mitomycin C], the MIC was determined as 0.782 µg/mL (≈ 1.31 µM) in [1] (setting [7]), 12.5 µg/mL (≈ 20.9 µM) in series [2] and 0.782 µg/mL (≈ 1.31 µM) in series [3]. Moreover, in series [6], the “Distribution Ratio (butanol/water)” value turned out to be 9.665. In addition, in the series with Sarcoma 180 solid tumor, the “Sarcoma 180 (T/C), ratio” value was determined as 0.35. This molecule displayed an LD50 in the series “in vivo” of 110 mg/kg.
Regarding `CCCCCCCCCCCCCC(=O)N1C2CN3C4=C(C(=O)C(N)=C(C)C4=O)C(COC(N)=O)C3(OC)C21` (stereo not drawn) [1a-myristoyl mitomycin C, la-myristoyl mitomycin C], the MIC in series [1] (setting [7]) was 1.56 µg/mL (≈ 2.87 µM); in series [2], greater than 50 µg/mL; in series [3], 0.391 µg/mL (≈ 0.718 µM). The molecule also showed an LD50 in “in vivo” of 45 mg/kg.
`CCCCCCCC/C=C\CCCCCCCC(=O)N1C2CN3C4=C(C(=O)C(N)=C(C)C4=O)C(COC(N)=O)C3(OC)C21` (stereo not drawn) [1a-oleoyl mitomycin C, la-oleoyl mitomycin C]: the MIC in series [1] (setting [7]) was 1.56 µg/mL (≈ 2.61 µM); in series [2], greater than 50 µg/mL; in series [3], 0.782 µg/mL (≈ 1.31 µM). For the same molecule, in the series on Sarcoma 180 solid tumor, the “Sarcoma 180 (T/C), ratio” value is given as 0.31. Moreover, the LD50 in “in vivo” amounted to 105 mg/kg.
Take `CCCCCCCCCCCCCCCC(=O)N1C2CN3C4=C(C(=O)C(N)=C(C)C4=O)C(COC(N)=O)C3(OC)C21` (stereo not drawn) [1a-palmitoyl mitomycin C, la-palmitoyl mitomycin C]: the MIC is 0.782 µg/mL (≈ 1.37 µM) in [1] (setting [7]), greater than 50 µg/mL in [2] and 0.782 µg/mL (≈ 1.37 µM) in series [3]. In addition, in “in vivo”, the LD50 came to 75 mg/kg.
For `CCCCCC[C@@H](O)C/C=C\CCCCCCCC(=O)N1C2CN3C4=C(C(=O)C(N)=C(C)C4=O)C(COC(N)=O)C3(OC)C21` (stereo partly drawn) [1a-ricinoleoyl mitomycin C, la-ricinoleoyl mitomycin C], the figures for the MIC in [1] (setting [7]), in [2] and in series [3] were 0.782 µg/mL (≈ 1.27 µM), 0.782 µg/mL (≈ 1.27 µM) and 0.391 µg/mL (≈ 0.636 µM), respectively. Further, the “Sarcoma 180 (T/C), ratio” value with Sarcoma 180 solid tumor stood at 0.28. In the series “in vivo”, this molecule showed an LD50 of 60 mg/kg.
For `CCCCCCCCCCCCCCCCCC(=O)N1C2CN3C4=C(C(=O)C(N)=C(C)C4=O)C(COC(N)=O)C3(OC)C21` (stereo not drawn) [1a-stearoyl mitomycin C, la-stearoyl mitomycin C], the MIC in series [1] (setting [7]), in series [2] and in series [3] was greater than 50 µg/mL throughout. In “in vivo”, this molecule gave an LD50 of 75 mg/kg.
Consider `CCCCCC/C=C/CCCCCCCCCC(=O)N1[C@H]2[C@@H]1CN1C3=C(C(=O)C(N)=C(C)C3=O)[C@@H](COC(N)=O)[C@@]21OC` [1a-vaccenoyl mitomycin C, la-vaccenoyl mitomycin C], for which the results for the MIC in series [1] (setting [7]), in series [2] and in series [3] were 3.12 µg/mL (≈ 5.22 µM), 50 µg/mL (≈ 83.5 µM) and 0.782 µg/mL (≈ 1.31 µM), respectively. Further, the “Sarcoma 180 (T/C), ratio” value with Sarcoma 180 solid tumor was 0.34. Moreover, the LD50 in “in vivo” was determined as 105 mg/kg.
For `CCCCCCCC/C=C\CCCCCCCCCCCC(=O)N1C2CN3C4=C(C(=O)C(N)=C(C)C4=O)C(COC(N)=O)C3(OC)C21` (stereo not drawn) [la-ercoyl mitomycin C], the MIC in series [1] (Enterococcus faecalis, ATCC10541, read-out: Minimum Inhibitory Concentration, Streptococcus faecalis ATCC 10541) was greater than 50 µg/mL; in [2] it was 50 µg/mL (≈ 76.3 µM); in series [3] it was greater than 50 µg/mL. Also, the LD50 in the series “in vivo” turned out to be 125 mg/kg.

In general, LD50 refers to the dose expected to kill half of the subjects tested. Lower therefore signals greater toxicity.
